Molecules are shown by their SMILES. Where only a bound is given, the exact number is not on record here.

The test system of data set [1] is human primary microvascular endothelial cells. Briefly: Fura-2 calcium imaging, microvascular endothelial cells. It counts as cell-based. On the procedure: Human adult dermal microvascular endothelial cells (catalogue number CC-2543; cells had been characterised by tests for cell type markers: positive for acetylated LDL uptake, positive for factor VIII related antigen, negative for alpha smooth muscle actin)
(§1) For calcium imaging experiments cells were plated onto poly-L-lysine coated coverslips (13 mm). Single cell imaging was performed utilizing a MiraCal Imaging facility (Life Science Resources, Cambridge, U.K.) with a Nikon Diaphot-TMD inverted epifluorescence microscope equipped with a ×40 oil immersion objective and Sutter filter wheel. The imager was equipped with a Lambert intensifier 1187 (Life Sciences Resources) providing a ×30 enhancement of the fluorescent signal, thus limiting phototoxicity.
(§2) Fura-2 acetoxymethyl ester (fura-2 AM) incubations with the cells were performed at 37° C. in a medium containing (in mM): 120 NaCl, 3.5 KCl, 0.4 KH2PO4, 5 NaHCO3, 1.2 Na2SO4, 15 glucose, 1.2 MgCl2, 1 CaCl2, and 20 TES [N-tris(hydroxymethyl) methyl-2-aminoethane sulphonic acid] pH adjusted to 7.4 with NaOH. Typically cells were incubated in 3 μM fura-2 AM for 25 min., which permitted sufficient accumulation of free fura-2 in the cell cytoplasm. Cells were then illuminated alternately at 340 and 380 nm with the emitted 505 nm light being detected by a photomultiplier. Free fura emits maximally when excited at 380 nm, whilst the calcium bound fura has a maximal emission when excited at 340 nm. Thus the ratio of emission when alternately excited at 340/380 nm is a measure of the calcium concentration in equilibrium with the chelator. Changes of intracellular calcium were quantified as the percentage increase of the fluorescent ratio (determined at ˜505 nm) obtained by exciting the test cells alternatively at 340 nm (optimal for calcium bound dye) and 380 nm.

Data set [2] has as its system human prostate epithelial cells. Briefly: Fura-2 calcium imaging, prostate epithelial cells. It is filed as cell-based. How it is done: Human prostate epithelial cells (catalogue number CC-2555; stain positive for cytokeratin 8,13.)
as §1
as §2, with “Free fura emits maximally when excited at 380 nm, whilst the calcium bound fura has a maximal emission when excited at 340 nm. Thus the ratio of emission when alternately excited at 340/380 nm is a measure of the calcium concentration in equilibrium with the chelator.” left out

Data set [3] has as its system MDA MB 468 cells. Briefly: MTS cell viability/proliferation assay, MDA MB 468 cells. It counts as cell-based, human. The following applies: 15 minute exposure then drug-free medium; at 48 hours; MTS. How it is done:
(§3) This was carried out using an MTS assay (reagents from Promega Corporation, Madison Wis., USA) which is a modification of the MTT assay (as described in Jacobson et al, 1994 EMBO J Vol 13 pp1899-1910). The assay depends on conversion of the MTS tetrazolium compound to a coloured formazan product in metabolically active cells; it is therefore an assay of viable cell number. A decline in values implies cell killing as long as cell disappearance by apoptosis in untreated cell populations is absent or negligible (as with most healthy primary cell populations).
(§4) Cells were seeded in the range 1.5×10^5-1.8×10^5 cells per ml of culture medium in 96 well microtitre plates and allowed to attach in a humidifed atmosphere of 5% CO2 in air at 37 deg C. Drugs were added 18-24 hours later and cell viability/proliferation measured at time intervals up to 48-72 hours post-drug addition when the experiment was terminated. Mean (±SE) values at each time point were obtained from wells in triplicate.
(§5) Cell viability was measured as follows: 20 μl of MTS solution (Promega) was added to wells and incubated at 37 deg C. for 3 hours during which time a coloured formazan product is generated in viable cells. […] Viable cell number was then measured by reading absorbance at 490 nm in a Dynex microtitre plate reader. […]

Data set [4] has as its system adult dermal fibroblasts. Briefly: MTS cell viability/proliferation assay, adult dermal fibroblasts. The settings on record: 1-10 μM. It counts as cell-based, human. On the procedure:
as §3, §4, §5

Data set [5] deals with phospholipase C. Briefly: GFP-PH PLCdelta 1 relocalisation (PLC activation) in MDA MB 468 cells. It is filed as cell-based, human.
Source text: The inventors introduced a recombinant plasmid vector encoding a hybrid protein comprised of the pleckstrin homology (PH) domain of phospholipase C (PLC) delta 1 fused green fluorescent protein (GFP) (GFP-PH PLCdelta 1) into MDA MB 468 mammary carcinoma cells. A standard transfection method (Fugene-6—Roche) was used. […] Cells were maintained in DMEM with 10% fetal bovine serum at 37 deg C. in 5% CO2 before and during exposure to sigma ligands which were present at a range of concentrations. Effects on the GFP-PH PLCdelta 1 protein were studied in two ways: by time lapse microscopy (using a Leica inverted fluorescence microscope and a Hammamatsu Orca charge-coupled device camera, linked to an Improvision Open Lab image processing workstation). This enabled the time course of effects to be determined. […] Control cell populations received drug vehicle alone and were analysed at the same time points.
GFP-PH PLC delta 1—expressing MDA MB 468 cells were exposed to sigma antagonists in 1 mM and 0 mM (nominally calcium-free) buffer (as used for the calcium imaging experiments, described above) and monitored by time lapse imaging as above.
Data set [6] concerns PKB/Akt. Kind of data set: PKB immunoprecipitation activity assay in MDA MB 468 cells. It is filed as cell-based, human. How it is done: All cells received 1% DMSOvehiclefor the duration of stimulation. […] Data pointsshown are the mean PKB activity relative to vehicle treated cells from three independently treated dishes of cells with error barsindicating the standard deviation. As controls, cells were treatedwith the PI 3-kinase inhibitor wortmannin for 30 minutes orstimulated with serum for 5 minutes; and
MDA MB 468 cells were exposed to the sigma antagonist IPAG at 100 μM and 10 μM concentrations for periods of time up to 4 hours. At intervals, cells were lysed and then subjected to PKB immunoprecipitation, precisely as has been described previously (Leslie et al., 2001, Biochemical Journal, Vol 357 p427). This method, which is recognised in the art, provides a quantitative measure of PKB activity. FIG. 5c depicts a concentration- and time-dependent decline in PKB activity when cells were exposed to IPAG.

The target in data set [7] is sigma-1 sites (Homo sapiens, UniProt Q99720). The following applies: Whittemore et al 1997; read-out: inhibition constant for sigma-1 sites; cited from earlier work.
Chain of sigma-1 sites (Q99720 whole entry): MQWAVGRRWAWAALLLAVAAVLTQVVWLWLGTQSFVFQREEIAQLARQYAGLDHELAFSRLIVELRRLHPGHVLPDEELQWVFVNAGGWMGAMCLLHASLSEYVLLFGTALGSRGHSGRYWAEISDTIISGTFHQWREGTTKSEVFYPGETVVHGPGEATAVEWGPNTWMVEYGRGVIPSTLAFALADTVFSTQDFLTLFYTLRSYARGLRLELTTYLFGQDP
[8] abbreviates: 1-10 μM, microvascular endothelial cells.

Regarding `N=C(Nc1ccc(I)cc1)NC1C2CC3CC(C2)CC1C3` (centres unmarked) [IPAG, 1-(4-iodophenyl)-3-(2-adamantyl)guanidine], the “% increase of cytosolic calcium (peak 340/380 nm fura-2 ratio)” value worked out at 119±13% in data set [1] (1 μM, microvascular endothelial cells); 293±14% in data set [1] (10 μM, microvascular endothelial cells); 10±5% in data set [2] (1 μM); 25±5% in data set [2] (10 μM). Also, in data set [1] (10 μM, 1 mM, 0.1 mM and nominally calcium free medium), the “initial calcium rise above baseline, occurring within 1 minute” value is above 100%. The “time to evident increase of cytosolic calcium after drug application” value in data set [1] (setting [8]) was in the range of 5 to 10 s. Besides, the “time to peak effect on cytosolic calcium” value in data set [1] (setting [8]) is listed as at most 3 min. Also, the “viable cell number less than control values” in data set [3] is 20-30%. The Cytotoxicity result in data set [4] is on record as “not cytotoxic”. In addition, the “relocalisation of GFP-PH PLC delta 1 from membrane to cytosol” value in data set [5] (100 μM, approximately 10 minutes, DMEM with 10% fetal bovine serum) is “pronounced relocalisation”. Besides, the “localisation of GFP-PH PLC delta 1” value in data set [5] (nominally calcium-free buffer (0 mM calcium)) is reported as “remained membrane-localised”. The PKB activity result in data set [6] (10 μM, up to 4 hours) is “later decline in PKB activity”; in data set [6] (100 μM, within 5 minutes, sustained to at least 30 minutes) it was “profoundly inhibited PKB activity”. Also, the Ki in data set [7] was around 2.8 nM.

(Values after US20040171089A1, “High-throughput screening assay for identifying substances capable of modulating cell survival and/or proliferation” (priority 2001, published 2004).)
